Active and inactive are the calls of the source. No stated cut-off is given here; in the data, actives have a measured IC50 and inactives only a lower limit.
target: Envelope glycoprotein gp160 (Human immunodeficiency virus 1, UniProt Q6QLK5); assay: cell-free HIV fusion peptide-binding blockers – biochemical, uHTS, fluorescence dequenching, […] (AID 1986)
Sequence (Q6QLK5 whole entry, the tested form may be a part): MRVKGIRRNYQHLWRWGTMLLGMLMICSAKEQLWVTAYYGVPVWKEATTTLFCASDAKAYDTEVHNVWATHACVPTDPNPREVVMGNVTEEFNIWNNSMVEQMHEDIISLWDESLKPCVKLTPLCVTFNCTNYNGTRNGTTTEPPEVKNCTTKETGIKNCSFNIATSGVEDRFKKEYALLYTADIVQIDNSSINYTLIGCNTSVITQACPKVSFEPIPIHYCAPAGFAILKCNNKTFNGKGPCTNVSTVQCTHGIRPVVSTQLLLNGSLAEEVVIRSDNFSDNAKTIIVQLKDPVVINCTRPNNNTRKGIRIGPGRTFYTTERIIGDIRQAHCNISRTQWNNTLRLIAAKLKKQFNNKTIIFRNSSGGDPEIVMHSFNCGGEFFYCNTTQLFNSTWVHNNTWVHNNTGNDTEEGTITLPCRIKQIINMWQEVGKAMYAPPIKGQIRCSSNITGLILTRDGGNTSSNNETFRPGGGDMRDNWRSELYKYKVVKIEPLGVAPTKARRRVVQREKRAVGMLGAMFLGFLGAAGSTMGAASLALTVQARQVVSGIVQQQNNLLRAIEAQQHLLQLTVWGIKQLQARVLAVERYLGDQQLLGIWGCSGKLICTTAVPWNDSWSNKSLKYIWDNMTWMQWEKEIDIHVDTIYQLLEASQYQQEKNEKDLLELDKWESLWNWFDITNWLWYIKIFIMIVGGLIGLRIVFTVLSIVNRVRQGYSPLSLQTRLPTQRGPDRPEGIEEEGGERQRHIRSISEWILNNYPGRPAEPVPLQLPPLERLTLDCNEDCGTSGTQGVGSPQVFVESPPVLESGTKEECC

SMILES	IC50
O=C(Nc1ccccc1Cc1ccccc1)c1ccccc1NS(=O)(=O)c1ccc(Cl)s1	17 µM (active)
O=C(O)c1ccccc1N=Nc1c(O)[nH]c2ccc([N+](=O)[O-])cc12	23.3 µM (active)
CCS(=O)(=O)C1=NN2C(=N)/C(=C\c3ccc(OS(=O)(=O)c4ccccc4)c(OC)c3)C(=O)N=C2S1	17.8 µM (active)
COc1ccc(-c2nn(-c3ccccc3)cc2/C=C2/SC(=S)N(CCCC(=O)O)C2=O)c(C)c1	20.2 µM (active)
CCc1ccc(NC2=NC(=O)/C(=C/c3cc(Br)c(OCC(=O)O)c(OC)c3)S2)cc1	14.6 µM (active)
